Experimental findings from US20240270771A1, “Compound containing phosphate group, pharmaceutical composition containing same, preparation method therefor and use thereof” (SHANGHAI RAISING PHARMACEUTICAL CO., LTD., priority 2021, published 2024) are described below.

Data set [1] can be described thus: Acute toxicity test, gavage to mice. It is filed as in vivo, Kunming strain mice. The conditions noted are these: male mice; for Body weight before administration (mean ± standard deviation): baseline before gavage 2000 mg/kg once a day; for Body weight on Day 7 (mean ± standard deviation) / Body weight on Day 14 (mean ± standard deviation): gavage 2000 mg/kg once a day. How it is done:
CMC-Na (sodium carboxymethylcellulose) was purchased from Shanghai Sinopharm Chemical Reagent Co., Ltd.
The test animals were Kunming strain mice, 18-20 g, provided by Beijing Keao Xieli Feed Co., Ltd.
• 1) Preparation of 0.7% CMC-Na: 0.7 g CMC-Na was added with distilled water to prepare a 0.7 g/100 mL solution. • 2) The compound to be tested was added to 0.7% CMC-Na to prepare a 100 mg/mL suspension. • 3) Each test group comprised 10 mice, all of which were male. Each mouse was orally administered with the test compound (2000 mg/kg) by gavage, once a day, for a cumulative period of 15 days. […] The body weights were recorded on the day of administration, days 7 and 14. 2.3. Test results

Data set [2] concerns scopolamine-induced acute memory dysfunction model. The experiment in a line: Jumping stand test, scopolamine-induced acute memory dysfunction model. It is filed as in vivo, ICR mice. To be noted: scopolamine 2 mg/kg i.p., compound 200 mg/kg gavage once a day 3 weeks; for Number of errors: model group 1.7 ± 0.5; for Latency period: model group 68.5 ± 80.0. The protocol:
(§1) The mice employed in the present test were purchased from Xipuer-BIKAI Laboratory Animal Co., Ltd., and they were SPF grade ICR mice, 3-4 weeks old, weighing 16-18 g.
Scopolamine hydrobromide trihydrate was purchased from aladdin, Product No.: S107418; Purity: 98%.
(§2) Test article preparation: 100 mg of the compound to be tested was weighed and added to 10 mL of 0.7% CMC-Na to prepare a 10 mg/mL suspension for use.
(§3) The laboratory mice were randomly divided into groups (9 or 10 mice per group). The mice in each group were administrated at a dosage of 0.2 mL/10 g body weight by oral gavage once a day for three weeks.
(§4) The laboratory animals were administered by gavage for 3 consecutive weeks according to the above administration dosage/specification. Training was started on the last day of administration, and the test was conducted 24 hours later.
The laboratory animals were administered by gavage for 3 weeks, and scopolamine (mouse: 2 mg/kg) was injected intraperitoneally 0.5 hour after the last dose. The animals were trained with YLS-3 TB jumping stand detector and tested for memory acquisition function after 24 hours. The latency period (the time from the start of counting to the first time of jumping off the stand) and the number of errors (the number of electric shock) were recorded.
(§5) The YLS-3 TB jumping stand detector were divided into five compartments by transparent boards. The bottom of the compartment was covered with a copper grid and applied with a voltage of 50 V A rubber pad stand with a height of 3.5 cm and a diameter of 3.5 cm was placed in each compartment to serve as a safe area for mice to avoid electric shock. Training of laboratory mice before the formal test: the laboratory mice were placed in the small compartment with a stand to get familiar with the environment for 5 min (the five compartments were connected), and then electrified for stimulation (all the laboratory mice were on the grid at this time), at the voltage of 50 V and current of 1.00 mA. Mice have the habit of jumping from a high place. If they jump, they will be shocked to produce memory. The current was applied for 5 min, which served as the training process.
Testing: the animals were put on the stand in the jumping compartment one by one. The time interval for putting each animal was 5 s. After the first animal was put on the stand, the electricity was applied immediately. The electricity was applied for 6 min. At the end of applying electricity, data were printed, and the latency period (the time from the start of counting to the first time of jumping off the stand) and the number of errors (the number of electric shock during the testing period) were recorded. […]

Data set [3] relates to sodium nitrite-induced hypoxic memory impairment model. The experiment in a line: Jumping stand test, sodium nitrite-induced hypoxic memory impairment model. It is filed as in vivo, ICR mice. To be noted: sodium nitrite 120 mg/kg s.c., compound 200 mg/kg gavage once a day 3 weeks; for Number of errors: model group 1.4 ± 0.7; for Latency period: model group 93.8 ± 90.25. How it is done:
as §1
Sodium nitrite (NaNO2) was purchased from Sinopharm Chemical Reagent Co., Ltd.; Product No.: 10020018; Specification: analytical grade.
as §2, §3, §4
The laboratory animals were administered by gavage for three weeks. One hour after the last administration, the animals were trained with YLS-3 TB jumping stand detector. After the training, sodium nitrite (mouse: 120 mg/kg) was injected subcutaneously (in the neck) immediately. The jumping stand test was conducted 24 hours later. The latency period (the time from the start of counting to the first time of jumping off the stand) and the number of errors (the number of electric shock) were recorded.
as §5
Testing: the animals were put on the stand in the jumping compartment one by one. The time interval for putting each animal was 5 s. After the first animal was put on the stand, the electricity was applied immediately. The electricity was applied for 6 min. At the end of applying electricity, data were printed, and the latency period (the time from the start of counting to the first time of jumping off the stand) and the number of errors (the number of electric shock during the testing period) were recorded. Due to the different time of putting the animal in, the time difference can be subtracted according to the actual time of putting the animal.

Data set [4] has as its system memory reproduction disorder model induce by ethanol. The experiment in a line: Dark avoidance test, memory reproduction disorder model induced by ethanol. To be noted: 45% ethanol 0.1 mL/10 g gavage, compound 200 mg/kg gavage once a day 3 weeks; for Number of errors: model group 2.4 ± 1.7; for Latency period: model group 118.4 ± 106.9. It is filed as in vivo, ICR mice. The protocol:
as §1
Anhydrous ethanol: Shanghai Titan Technology Co., Ltd.; Product No.: G73537B; Purity: >99.7%.
as §2, §3
The laboratory mice animals were administered by gavage for three weeks. One hour after the last administration, they were trained with the YLS-17B dark avoidance tester. The test was performed 24 h later. A 45% ethanol solution (0.1 mL/10 g) was administered by oral gavage 30 min before the test. The latency period (the time from the start of counting to the first time of entering the dark compartment) and the number of errors (number of electric shocks) of the animals were recorded.
The activity box of the dark avoidance automatic tester comprises two compartments (bright and dark), there is a hole between the two compartments, the bottom of the box is covered by a copper grid, and the animals normally go into the dark compartment. Before the formal test, the laboratory mice were trained by placing the animals in the bright compartment with their backs facing the entrance of the hole, to get familiar with the environment for 5 min, and then the copper grid in the dark compartment was electrified for stimulation at a voltage of 50 V and a current of 1.00 mA (which can be adjusted according to the actual situation). When the animals received electric shock, they entered the bright compartment, or went back and forth between the two compartments. The current was continuously applied for 5 min, which served as the training process.
Testing: the mice modeled with ethanol were put into the bright box one by one with their backs facing the entrance of the hole, and the time interval between putting each animal was 5 s. After the first animal was put into the bright compartment, the electricity was applied immediately. The electricity was applied for 6 min. At the end of applying electricity, data were printed, and the latency period (the time from the start of counting to the first time of entering the dark compartment) and the number of errors (the number of electric shock during the testing period) were recorded. Due to the different time of putting the animal in, the time difference can be subtracted according to the actual time of putting the animal.
Statistical analysis: all data were expressed as the mean value±standard deviation, and SPSS software was used for analysis.

Consider `CCCC(CCC)C(=O)S/C(CCOP(=O)(O)O)=C(/C)N(C=O)Cc1cnc(C)nc1N` [Compound 1, (Z)—S-(2-(N-((4-amino-2-methylpyrimidin-5-yl)methyl)formamido)-5-(phosphonooxy)pent-2-en-3-yl) 2-propylpentanethioate], for which, in data set [1], the “Body weight before administration (mean ± standard deviation)” value was 31.4 ± 1.1 g, the “Body weight on Day 7 (mean ± standard deviation)” value is 35.5 ± 1.0 g and the “Body weight on Day 14 (mean ± standard deviation)” value is on record as 36.7 ± 1.2 g. In data set [2], this molecule returned a Number of errors of 0.8 ± 0.8 and a Latency period of 180.0 ± 105.9 s. Besides, in data set [3], the Number of errors was determined as 0.4 ± 0.7 and the Latency period is recorded as 228.8 ± 155.9 s. Further, in data set [4], the Number of errors is on record as 1.0 ± 1.25 and the Latency period is 229.8 ± 90.0 s.
For `CCC(CC)C(=O)S/C(CCOP(=O)(O)O)=C(/C)N(C=O)Cc1cnc(C)nc1N` [Compound 2, (Z)—S-(2-(N-((4-amino-2-methylpyrimidin-5-yl)methyl)formamido)-5-(phosphonooxy)pent-2-en-3-yl) 2-ethylbutanethioate], the Number of errors in data set [2] is listed as 0.9 ± 0.7; in data set [3], 0.6 ± 0.8; in data set [4] it was 1.2 ± 1.3. The Latency period was 173.2 ± 98.7 s in data set [2], 210.4 ± 117.3 s in data set [3] and 217.4 ± 96.6 s in data set [4].
Take `C/C(=C(\CCOP(=O)(O)O)SC(=O)c1ccco1)N(C=O)Cc1cnc(C)nc1N` [Compound 9, (Z)—S-(2-(N-((4-amino-2-methylpyrimidin-5-yl)methyl)formamido)-5-(phosphonooxy)pent-2-en-3-yl) furan-2-carbothioate]: in data set [1], the “Body weight before administration (mean ± standard deviation)” value is 32.1 ± 1.7 g, the “Body weight on Day 7 (mean ± standard deviation)” value amounted to 35.7 ± 1.4 g and the “Body weight on Day 14 (mean ± standard deviation)” value was found to be 36.3 ± 1.7 g. Also, in data set [3], the Number of errors is given as 0.6 ± 0.7 and the Latency period is 209.3 ± 110.4 s. In data set [4], the Number of errors came out at 1.0 ± 1.0 and the Latency period is reported as 216.1 ± 76.8 s.
